Experimental data published in PubChem BioAssay AID624281 (Broad Institute, 2012).
Calls of active or inactive are those of the source. No rule for the calls is given here.

Test system: V. cholerae DH231 (ΔcqsS ΔluxS) lux bioluminescence, 6 h
Test: Confirmatory dose response, inducers of lux bioluminescence, V. cholerae DH231 δcqsS δluxS (AID 624281)
Conditions: not given

**Q.** Which AC40 does the source give for `O=C(Nc1nnc(-c2ccc3c(c2)OCCO3)o1)C1CCCCC1` here?
**A.** 0.883 µM

**Q.** With `Cc1ccc2cc3c(NC(=O)c4ccco4)nn(C)c3nc2c1` as the compound, how does the AC40 read?
**A.** 2.03 µM

**Q.** With `COc1ccccc1NC(=O)COC(=O)c1cc2c(s1)CCC2` as the compound, how does the AC40 read?
**A.** > 35 µM (inactive)

Test system: not listed separately
Test: as above
Conditions: V. cholerae DH231 (ΔcqsS ΔluxS) lux bioluminescence, 6 h; at 35 µM (top of the series)

**Q.** For `COc1ccc(Cl)cc1NC(=O)COC(=O)c1ccc(C)o1`, which luminescence activation is on record?
**A.** -3.04% (inactive)

**Q.** Which luminescence activation does the source give for `CCn1c(CC(=O)Nc2cccc(Cl)c2Cl)nnc1SCCOc1ccc(OC)cc1` here?
**A.** -63.2% (inactive)

**Q.** For `Cc1c(Cl)cccc1-n1cnc(=O)c2ccccc21`, which luminescence activation is on record?
**A.** -4.11% (inactive)

**Q.** Which luminescence activation does the source give for `CCn1nnnc1NCc1ccc(N2CCCC2)cc1` here?
**A.** -52.4% (inactive)

**Q.** Which luminescence activation does the source give for `CCCn1nnnc1NCc1ccc(N(CC)CC)cc1` here?
**A.** -19.9% (inactive)

**Q.** With `CCC(C)NC(=O)Cc1ccc(-c2ccccc2)cc1` (stereo not given) as the compound, how does the luminescence activation read?
**A.** -15.3% (inactive)

**Q.** With `Cc1ccc(OCCNC(=O)c2cccc(C)c2)cc1` as the compound, how does the luminescence activation read?
**A.** -33.1% (inactive)

**Q.** With `CCCn1nnnc1NCc1ccccc1Cl` as the compound, how does the luminescence activation read?
**A.** -4.59% (inactive)

**Q.** With `CCOc1ccc(Nc2ccc3nonc3c2[N+](=O)[O-])cc1` as the compound, how does the luminescence activation read?
**A.** -40.9% (inactive)

**Q.** With `CCn1nnc(NCc2ccc(C)cc2)n1` as the compound, how does the luminescence activation read?
**A.** 4.08% (inactive)

**Q.** With `Cc1ccc(CC(=O)NC2CCCC2)cc1` as the compound, how does the luminescence activation read?
**A.** 0.807% (inactive)

**Q.** Which luminescence activation does the source give for `CCCn1nnnc1NCc1ccc(N2CCCC2)cc1` here?
**A.** -14% (inactive)

**Q.** For `CCCn1nnnc1NCc1ccc(C(C)C)cc1`, which luminescence activation is on record?
**A.** -30.3% (inactive)

**Q.** For `COc1ccccc1NC(=O)COC(=O)c1ccc(C)cc1`, which luminescence activation is on record?
**A.** 8.61% (inactive)

**Q.** With `O=c1ncn(-c2cccc(Cl)c2)c2ccccc12` as the compound, how does the luminescence activation read?
**A.** 14.1% (inactive)

**Q.** For `O=C(Cc1ccc(-c2ccccc2)cc1)NC1CCCC1`, which luminescence activation is on record?
**A.** -8.42% (inactive)

**Q.** Which luminescence activation does the source give for `COc1ccccc1NC(=O)COC(=O)c1oc2ccccc2c1C` here?
**A.** -6.24% (inactive)
